Assays:
Experiment in all cases: Bliss excess, mean over the matrix (fraction); higher = more synergy
[1] = test system: NCI-H2122 (Lung Adenocarcinoma)
Summary of the method: (§1)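 Cell lines in DMEM/F12 or RPMI with 10% FBS were plated in 1536-well plates, held 24 hours at 37°C, 5% CO2, then given two-drug dose matrices for 72 hours (DMSO typically 0.2%). Viability was read by CellTiter-Glo 2.0 luminescence and scaled as inhibition from 0 (vehicle wells) to 1 (blank wells). Combination Emax is the second-highest inhibition in the matrix; Bliss excess is observed combination effect minus expected EA + EB − EA·EB, EA and EB being single-agent effects.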

COLO-679 (Melanoma) = test system: COLO-679 (Melanoma)
Summary of the method: as §1

[2] = test system: MDA-MB-453 (Breast Carcinoma)
Summary of the method: as §1

[3] = test system: HCC1500 (Breast Carcinoma)
Summary of the method: as §1

[4] = test system: ALL-SIL (T-Lymphoblastic Leukemia)
Summary of the method: as §1

[5] = test system: EJM (Plasma Cell Myeloma)
Summary of the method: as §1

[6] = test system: SW872 (Other Solid Carcinomas)
Summary of the method: as §1

[7] = test system: A4-Fuk (B-Lymphoblastic Leukemia)
Summary of the method: as §1

[8] = test system: SKN (Other Solid Carcinomas)
Summary of the method: as §1

[9] = test system: Ca-Ski (Cervical Carcinoma)
Summary of the method: as §1

[10] = test system: DU-145 (Prostate Carcinoma)
Summary of the method: as §1

EW-1 (Ewing's Sarcoma) = test system: EW-1 (Ewing's Sarcoma)
Summary of the method: as §1

[11] = test system: Mo-T (Other Blood Carcinomas)
Summary of the method: as §1

[12] = test system: OE33 (Esophageal Adenocarcinoma)
Summary of the method: as §1

[13] = test system: HCC2998 (Colorectal Carcinoma)
Summary of the method: as §1

SK-N-AS (Neuroblastoma) = test system: SK-N-AS (Neuroblastoma)
Summary of the method: as §1

[14] = test system: SK-LU-1 (Lung Adenocarcinoma)
Summary of the method: as §1

[15] = test system: MOG-G-UVW (Low Grade Glioma)
Summary of the method: as §1

[16] = test system: NCI-H522 (Lung Adenocarcinoma)
Summary of the method: as §1

[17] = test system: KGN (Other Solid Carcinomas)
Summary of the method: as §1

Row | SMILES | Bliss excess [1] | Bliss excess (COLO-679 (Melanoma)) | Bliss excess [2] | Bliss excess [3] | Bliss excess [4] | Bliss excess [5] | Bliss excess [6] | Bliss excess [7] | Bliss excess [8] | Bliss excess [9] | Bliss excess [10] | Bliss excess (EW-1 (Ewing's Sarcoma)) | Bliss excess [11] | Bliss excess [12] | Bliss excess [13] | Bliss excess (SK-N-AS (Neuroblastoma)) | Bliss excess [14] | Bliss excess [15] | Bliss excess [16] | Bliss excess [17]
1 | COc1nnc2ccc(N3CCC(c4ccc(OCCN5CCN(C)C(=O)[C@H]5C)cc4)CC3)nn12 [AZD5153] + CC1(C)CCC(CN2CCN(c3ccc(C(=O)NS(=O)(=O)c4ccc(NCC5CCOCC5)c([N+](=O)[O-])c4)c(Oc4cnc5[nH]ccc5c4)c3)CC2)=C(c2ccc(Cl)cc2)C1 [Venetoclax] (first compound max 1 µM, 7x7, partner max 1 µM) | -0.041 | -0.0818 | -0.0381 | -0.04 | 0.0565 | -0.0381 | -0.051 | -0.0678 | -0.0295 | -0.095 | -0.0181 | -0.068 | -0.0447 | -0.0775 | -0.0766 | -0.0792 | -0.118 | -0.0315 | -0.0711 | -0.0165
2 | CC(=O)c1c(C)c2cnc(Nc3ccc(N4CCNCC4)cn3)nc2n(C2CCCC2)c1=O [Palbociclib] + CC1(C)CCC(CN2CCN(c3ccc(C(=O)NS(=O)(=O)c4ccc(NCC5CCOCC5)c([N+](=O)[O-])c4)c(Oc4cnc5[nH]ccc5c4)c3)CC2)=C(c2ccc(Cl)cc2)C1 [Venetoclax] (first compound max 10 µM, 7x7, partner max 1 µM) | -0.0327 | -0.0676 | 0.0091 | -0.0899 | 0.0428 | -0.0211 | -0.0244 | -0.0926 | -0.0402 | -0.0543 | -0.0406 | 0.0441 | -0.0648 | -0.0458 | -0.0212 | -0.0354 | 0.0024 | -0.0282 | -0.0428 | 0.079
3 | NC1(C(=O)N[C@@H](CCO)c2ccc(Cl)cc2)CCN(c2ncnc3[nH]ccc23)CC1 [Capivasertib] + COc1nnc2ccc(N3CCC(c4ccc(OCCN5CCN(C)C(=O)[C@H]5C)cc4)CC3)nn12 [AZD5153] (first compound max 10 µM, 7x7, partner max 1 µM) | 0.0243 | -0.122 | -0.0148 | 0.0118 | -0.0024 | 0.0732 | -0.0399 | -0.0465 | 0.0238 | 0.0046 | 0.0276 | 0.0867 | -0.0717 | 0.0052 | -0.0046 | -0.0159 | 0.0081 | 0.0173 | -0.0698 | 0.0358
4 | CS(=O)(=O)CCNCc1ccc(-c2ccc3ncnc(Nc4ccc(OCc5cccc(F)c5)c(Cl)c4)c3c2)o1 [Lapatinib] + NC1(c2ccc(-c3nc4ccn5c(=O)[nH]nc5c4cc3-c3ccccc3)cc2)CCC1 [MK-2206] (first compound max 10 µM, 7x7, partner max 10 µM) |  | -0.031 | 0.0474 | 0.0415 |  |  | -0.0066 | 0.0825 | -0.0645 | 0.0103 | -0.0235 |  | 0.0719 | -0.0133 |  | -0.0327 | -0.0239 | 0.0675 | -0.0313 | 0.0078
5 | C=CCn1c(=O)c2cnc(Nc3ccc(N4CCN(C)CC4)cc3)nc2n1-c1cccc(C(C)(C)O)n1 [AZD1775] + C1CN(CCC1(C(=O)N[C@@H](CCO)C2=CC=C(C=C2)Cl)N)C3=NC=NC4=C3C=CN4 [Capivasertib] (first compound max 3 µM, partner max 3 µM) | 0.0752 | -0.0625 | -0.0524 | -0.0462 | -0.0129 | -0.0041 | -0.106 | -0.0977 | -0.0375 | 0.0161 | -0.055 | 0.0379 | -0.05 | -0.0326 | 0.0232 | -0.0806 | 0.0164 | -0.0039 | -0.0028 | -0.0195
6 | NC1(C(=O)N[C@@H](CCO)c2ccc(Cl)cc2)CCN(c2ncnc3[nH]ccc23)CC1 [Capivasertib] + CC(=O)c1c(C)c2cnc(Nc3ccc(N4CCNCC4)cn3)nc2n(C2CCCC2)c1=O [Palbociclib] (first compound max 10 µM, 7x7, partner max 10 µM) | 0.0338 | -0.201 | 0.0753 | 0.0017 | -0.0889 | -0.0189 | 0.0237 | -0.0374 | -0.0383 | 0.025 | -0.0272 | -0.0124 | -0.0271 | -0.0055 | -0.0745 | -0.0033 | -0.0139 | 0.0666 | -0.0696 | 0.0128
7 | CC1(C)CCC(CN2CCN(c3ccc(C(=O)NS(=O)(=O)c4ccc(NCC5CCOCC5)c([N+](=O)[O-])c4)c(Oc4cnc5[nH]ccc5c4)c3)CC2)=C(c2ccc(Cl)cc2)C1 [Venetoclax] + CS(=O)(=O)CCNCc1ccc(-c2ccc3ncnc(Nc4ccc(OCc5cccc(F)c5)c(Cl)c4)c3c2)o1 [Lapatinib] (first compound max 1 µM, 7x7, partner max 10 µM) |  | -0.0634 | -0.0106 |  |  |  | -0.0313 | -0.0406 | -0.0497 | -0.0249 | -0.0511 |  | -0.0092 | -0.0315 |  | -0.0432 | -0.0772 | -0.0012 | -0.0378 | -0.0609
